Experimental data: PubChem BioAssay AID252 (DTP/NCI, 2004)
Several values for one entry are separate records, joined by “and”; a condition that tells them apart may be missing. Identical values can stand only once. Toxic doses and inconclusive results are not listed.

Test system: BDF1 mice, intracerebral L1210 leukemia, survival T/C
Assay: NCI In Vivo Anticancer Drug Screen. Data for tumor model L1210 Leukemia (intracerebral) in B6D2F1 (BDF1) mice
Details: endpoint: mean survival time, higher = longer survival
Summary of the method: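 Tumour was transplanted, animals received compound or vehicle, then survival in each group was measured and treated divided by control.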

For `O=NN(CCCl)C(=O)NC12CC3CC(CC(C3)C1)C2`, the T/C (dose: 26.0 mg/kg/injection, schedule: Q01DX001 (ip), vehicle: carboxymethylcellulose (CMC)) was 108 % of control, the T/C (dose: 40.0 mg/kg/injection, schedule: Q01DX001 (ip), vehicle: carboxymethylcellulose (CMC)) was 112 % of control and the T/C (dose: 90.0 mg/kg/injection, schedule: Q01DX001 (ip), vehicle: carboxymethylcellulose (CMC)) was 120 % of control.
In the case of `O=NN(CCF)C(=O)NCCF`, the T/C (dose: 3.5 mg/kg/injection, schedule: Q01DX001 (ip), vehicle: saline) is reported as 160 % of control, the T/C (dose: 5.0 mg/kg/injection, schedule: Q01DX001 (ip), vehicle: saline) is reported as 208 % of control and the T/C (dose: 7.0 mg/kg/injection, schedule: Q01DX001 (ip), vehicle: saline) is reported as 254 % of control. The T/C (dose: 8.0 mg/kg/injection, schedule: Q01DX001 (ip), vehicle: saline) was 284 % of control and the T/C (dose: 14.0 mg/kg/injection, schedule: Q01DX001 (ip), vehicle: saline) was 303 % of control.
`CN(N=O)C(=O)Nc1ccccc1` was tested, and the T/C (dose: 150.0 mg/kg/injection, schedule: Q01DX001 (ip), vehicle: carboxymethylcellulose (CMC)) was 103 % of control and the T/C (dose: 300.0 mg/kg/injection, schedule: Q01DX001 (ip), vehicle: carboxymethylcellulose (CMC)) was 98 % of control.
`CC(=O)Nc1ccc2nc3ccc(NC(C)=O)cc3[n+](-c3ccccc3)c2c1` was tested, and the T/C (dose: 37.5 mg/kg/injection, schedule: Q01DX Z (ip), vehicle: carboxymethylcellulose (CMC)) was 104 % of control, the T/C (dose: 50.0 mg/kg/injection, schedule: Q01DX Z (ip), vehicle: carboxymethylcellulose (CMC)) was 98 % of control and the T/C (dose: 75.0 mg/kg/injection, schedule: Q01DX Z (ip), vehicle: carboxymethylcellulose (CMC)) was 103 % of control. The T/C (dose: 100.0 mg/kg/injection, schedule: Q01DX Z (ip), vehicle: carboxymethylcellulose (CMC)) was 101 % of control, the T/C (dose: 125.0 mg/kg/injection, schedule: Q01DX Z (ip), vehicle: carboxymethylcellulose (CMC)) was 107 % of control and the T/C (dose: 250.0 mg/kg/injection, schedule: Q01DX Z (ip), vehicle: carboxymethylcellulose (CMC)) was 97 % of control.
In the case of `O=NN(CCCl)C(=O)Nc1ccc(NC(=O)N(CCCl)N=O)cc1`, the T/C (dose: 44.0 mg/kg/injection, schedule: Q01DX009 (ip), vehicle: carboxymethylcellulose (CMC)) is reported as 186 % of control, the T/C (dose: 67.0 mg/kg/injection, schedule: Q01DX009 (ip), vehicle: carboxymethylcellulose (CMC)) is reported as 181 % of control and the T/C (dose: 100.0 mg/kg/injection, schedule: Q01DX009 (ip), vehicle: carboxymethylcellulose (CMC)) is reported as 160 % of control. For the same compound, the T/C (dose: 109.0 mg/kg/injection, schedule: Q01DX001 (ip), vehicle: carboxymethylcellulose (CMC)) was 119 % of control and 124 % of control, the T/C (dose: 225.0 mg/kg/injection, schedule: Q01DX009 (ip), vehicle: carboxymethylcellulose (CMC)) was 94 % of control and the T/C (dose: 264.0 mg/kg/injection, schedule: Q01DX001 (ip), vehicle: carboxymethylcellulose (CMC)) was 168 % of control. For the same compound, the T/C (dose: 366.0 mg/kg/injection, schedule: Q01DX001 (ip), vehicle: carboxymethylcellulose (CMC)) was 168 % of control and 182 % of control, the T/C (dose: 400.0 mg/kg/injection, schedule: Q01DX001 (ip), vehicle: carboxymethylcellulose (CMC)) was 181 % of control and the T/C (dose: 550.0 mg/kg/injection, schedule: Q01DX001 (ip), vehicle: carboxymethylcellulose (CMC)) was 155 % of control and 167 % of control. The T/C (dose: 600.0 mg/kg/injection, schedule: Q01DX001 (ip), vehicle: carboxymethylcellulose (CMC)) was 172 % of control, the T/C (dose: 900.0 mg/kg/injection, schedule: Q01DX001 (ip), vehicle: carboxymethylcellulose (CMC)) was 190 % of control and the T/C (dose: 1350.0 mg/kg/injection, schedule: Q01DX001 (ip), vehicle: carboxymethylcellulose (CMC)) was 173 % of control.
In the case of `O=NN(CCF)C(=O)NC1CS(=O)(=O)CS(=O)(=O)C1`, the T/C (dose: 11.0 mg/kg/injection, schedule: Q01DX001 (ip), vehicle: other) is reported as 113 % of control, the T/C (dose: 17.0 mg/kg/injection, schedule: Q01DX001 (ip), vehicle: other) is reported as 117 % of control and the T/C (dose: 25.0 mg/kg/injection, schedule: Q01DX001 (ip), vehicle: other) is reported as 120 % of control.
With `CCCCC(=O)N(c1ccc(Nc2c3ccccc3nc3cc([N+](=O)[O-])ccc23)cc1)S(C)(=O)=O` the T/C (dose: 3.18 mg/kg/injection, schedule: Q01DX009 (ip), vehicle: saline) was 96 % of control, the T/C (dose: 3.18 mg/kg/injection, schedule: Q01DX009 (sc), vehicle: saline) was 104 % of control and the T/C (dose: 6.25 mg/kg/injection, schedule: Q01DX009 (ip), vehicle: saline) was 99 % of control. The T/C (dose: 6.25 mg/kg/injection, schedule: Q01DX009 (sc), vehicle: saline) was 105 % of control, the T/C (dose: 12.5 mg/kg/injection, schedule: Q01DX009 (ip), vehicle: saline) was 101 % of control and the T/C (dose: 12.5 mg/kg/injection, schedule: Q01DX009 (sc), vehicle: saline) was 103 % of control. For the same compound, the T/C (dose: 25.0 mg/kg/injection, schedule: Q01DX009 (ip), vehicle: saline) was 97 % of control and the T/C (dose: 25.0 mg/kg/injection, schedule: Q01DX009 (sc), vehicle: saline) was 102 % of control.
